Results as given in US8455000B2, “Resorbable polymer compositions for use in medicine, dentistry, and surgery” (Syncera Inc., priority 2006, dated 2013).
Like-named read-outs stand apart in the source and are kept apart here.

Columns and labels:
[1] = Retention and release of dyes from PE-PEG matrix into phosphate buffered saline; format: physicochemical; details: dye only, tube 10
Procedure: Method: C50 PE-PEG16 was blended with PLURONIC™ L44 in a ratio of 7:3 w/w as described in Example 3. Rose Bengal (100 mg) and SR24 (100 mg) were mixed with 5 g aliquots of molten PE-PEG and PE-PEG/poloxamer blend, and maintained at 110° C. with mixing until the dye was fully dissolved.
Ten small (6 ml) glass test tubes were prepared as shown in Tables 5-6, Tubes 4-7 contained 0.5 g of the PE-PEG and PE-PEG/polymer samples mixed with dye, tubes 2, 3, 8 and 9 contained 0.5 g PE-PEG and PE-PEG/polymer samples (without dye) and 10 mg of dye added separately (after the PE-PEG or blend had solidified), tubes 1 and 10 contained only the dye, as controls.
Each glass test tube was affixed to the inside of a 50 ml polypropylene centrifuge tube with a silicone adhesive. Fifty ml of phosphate buffered saline was added to each of the tubes, and they were rocked gently for six days. At appropriate time points, the concentration of dye in the buffer was measured using a spectrophotometer. The SR24 dye was measured at 516 nm, the Rose Bengal concentration was estimated from the maximal absorption λmax from 540 nm to 560 nm.

[2] = in words; cited from earlier work

solubility in water [1]: zero solubility
Compound: Cc1ccccc1/N=N/c1ccc(/N=N/c2c(O)ccc3ccccc23)c(C)c1 [SR24, Solvent Red 24]
solubility in water [2]: negligible solubility
